Experiment in all cases: NCI anticancer screen, dose series, 48 h
In test [1] the test system is A498.
In test [2] the test system is ACHN.
Test [3] deals with CCRF-CEM.
Test [4] has as its system COLO 205.
Test [5] has as its system EKVX.
The subject of test [6] is HCC 2998.
In test [7] the test system is HOP-62.
Test [8] relates to IGROV-1.
For test [9], the system named is KM12.
Test [10] deals with LOX IMVI.
For test [11], the system named is MCF7.
The test system of test [12] is MDA-MB-231.
The subject of test [13] is MOLT-4.
Test [14] relates to Malme-3M.
In test [15] the test system is OVCAR-3.
The subject of test [16] is OVCAR-4.
The test system of test [17] is PC-3.
Test [18] relates to SK-MEL-5.
For test [19], the system named is SW-620.
The test system of test [20] is TK-10.

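1) Cells in 96-well plates. 2) Compound, 48 h, 5 concentrations. 3) Linear interpolation between surrounding doses. 4) Unreached endpoint = highest concentration. GI50 = concentration required for 50% inhibition of growth.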 Calls of active or inactive are those of the source. Rule as the data show it: active = GI50 up to about 1.1 µM and inactive = higher.

In the case of `COC(=O)[C@@H]1[C@H]2CC[C@]3(C)[C@@H](OC(C)=O)CC[C@H]3[C@@H]2CC[C@H]1C1(C)SCCS1`, the GI50 in test [1] was 57.5 µM (inactive); in test [2], 37.2 µM (inactive); in test [3], 36.9 µM (inactive); in test [4] it was 13.5 µM (inactive); in test [5], 25.1 µM (inactive); in test [6] it was 35.6 µM (inactive). Also, the GI50 is 23.1 µM (inactive) in [7]; 49.2 µM (inactive) in test [8]; 28.6 µM (inactive) in test [9]; 19.4 µM (inactive) in [10]; 27 µM (inactive) in test [11]; 17.1 µM (inactive) in test [12]. Also, the GI50 in test [13] is 24.8 µM (inactive); in test [14], 18.9 µM (inactive); in test [15], 33.1 µM (inactive); in [16], 25.1 µM (inactive); in [17] it was 26.8 µM (inactive); in test [18], 8.77 µM (inactive). The results for the GI50 in test [19] and in test [20] were 31.9 µM (inactive) and 75 µM (inactive), respectively.
In the case of `COc1ccc([C@@]23Oc4cc(OC)cc(OC)c4[C@]2(O)[C@H](O)[C@H](C(=O)N(C)C)[C@H]3c2ccccc2)cc1` [ROCAGLAMIDE], the GI50 is 0.00791 µM (active) in test [1]; 0.00344 µM (active) in test [2]; 0.00366 µM (active) in test [3]; 0.00647 µM (active) in test [4]; 0.0203 µM (active) in test [5]; 0.00289 µM (active) in [6]. The GI50 in test [7] is 0.00973 µM (active); in [8], 0.00612 µM (active); in test [9] it was 0.00294 µM (active); in [10], 0.00191 µM (active); in test [11], 0.00292 µM (active); in test [12], 0.00776 µM (active). Moreover, the GI50 was 0.00192 µM (active) in test [13]; 0.00429 µM (active) in test [14]; 0.056 µM (active) in test [15]; 0.0206 µM (active) in test [16]; 0.00836 µM (active) in test [17]; 0.00301 µM (active) in test [18]. The GI50 is 0.00299 µM (active) in test [19] and 0.0146 µM (active) in [20].
For `CCN1CCC(O)(c2ccc(Oc3ccccc3)cc2)C(C(=O)c2ccc(Oc3ccccc3)cc2)C1` (stereo not given), the GI50 in test [1] is 14 µM (inactive); in test [2], 15.5 µM (inactive); in test [3], 5.81 µM (inactive); in test [4] it was 13.6 µM (inactive); in [5], 16 µM (inactive); in [6] it was 6.62 µM (inactive). In addition, the GI50 was 11.9 µM (inactive) in test [7]; 15.4 µM (inactive) in test [8]; 4.85 µM (inactive) in test [9]; 3.84 µM (inactive) in [10]; 3.63 µM (inactive) in test [11]; 14.6 µM (inactive) in [12]. Besides, the GI50 is 13 µM (inactive) in test [13]; 17.1 µM (inactive) in test [14]; 14.8 µM (inactive) in test [15]; 10.6 µM (inactive) in test [16]; 13 µM (inactive) in test [17]; 12.5 µM (inactive) in test [18]. In addition, the GI50 in [19] is 12.1 µM (inactive); in test [20], 13.7 µM (inactive).
Turning to `C/C(=C/c1ccccc1)CN(C(=O)/C=C\Sc1ccccc1)C(C)(C)C`, the GI50 in test [1] is > 100 µM (inactive); in test [2], > 100 µM (inactive); in test [3] it was 63.1 µM (inactive); in [4], > 100 µM (inactive); in test [5], > 70 µM (inactive); in test [6] it was 45.4 µM (inactive). For the same compound, the GI50 in test [7] is > 100 µM (inactive); in test [8], > 100 µM (inactive); in test [9] it was > 100 µM (inactive); in test [10], > 66.4 µM (inactive); in test [11], 65.2 µM (inactive); in test [12], > 100 µM (inactive). In addition, the GI50 is 3.87 µM (inactive) in test [13]; > 100 µM (inactive) in test [14]; > 75.3 µM (inactive) in test [15]; > 87.5 µM (inactive) in test [16]; > 68.7 µM (inactive) in test [17]; 60.8 µM (inactive) in test [18]. For the same compound, the GI50 in test [19] and in [20] was > 100 µM (inactive) each time.
Take `COc1ccc(/C=C2\N=C3Sc4c([nH]cnc4=O)N3C2=O)cc1`: the GI50 was > 100 µM (inactive) in [1]; > 100 µM (inactive) in test [2]; > 100 µM (inactive) in [3]; > 100 µM (inactive) in test [4]; 78.9 µM (inactive) in [5]; 13.1 µM (inactive) in test [6]. In addition, the GI50 in [7], in test [8], in [9], in [10], in test [11] and in test [12] was > 100 µM (inactive) in each case. For the same compound, the GI50 in [13], in test [14], in [15], in [16], in test [17] and in test [18] was > 100 µM (inactive) each time. Further, the GI50 in [19] and in test [20] was > 100 µM (inactive) each time.
Take `Cc1ccc2c(c1)-c1c(C#N)c(N)nc(-c3ccc(Cl)cc3)c1CCS2(=O)=O`: the GI50 in test [1] is 17.2 µM (inactive); in [2] it was 8.77 µM (inactive); in test [3] it was 1.12 µM (active); in test [4] it was 4.55 µM (inactive); in test [5], 20.8 µM (inactive); in test [6], 6.7 µM (inactive). In addition, the GI50 in [7] was 6.12 µM (inactive); in [8], 5.43 µM (inactive); in [9], 3.48 µM (inactive); in [10], 10.1 µM (inactive); in test [11] it was 5.37 µM (inactive); in [12], 12.3 µM (inactive). In addition, the GI50 in test [13] is 4.99 µM (inactive); in test [14] it was 5.07 µM (inactive); in test [15] it was 3.94 µM (inactive); in [16] it was > 83 µM (inactive); in test [17] it was 5.48 µM (inactive); in test [18], 4.32 µM (inactive). The values for the GI50 in test [19] and in test [20] were 5.81 µM (inactive) and 43.6 µM (inactive), respectively.
Regarding `O=C(O)c1ccc(Nc2ccnc3cc(Cl)ccc23)cc1O`, the GI50 was > 100 µM (inactive) in [1]; > 100 µM (inactive) in test [2]; > 100 µM (inactive) in [3]; > 100 µM (inactive) in [4]; > 100 µM (inactive) in test [5]; 39.6 µM (inactive) in test [6]. Moreover, the GI50 is 45.7 µM (inactive) in test [7]; > 100 µM (inactive) in [8]; > 100 µM (inactive) in [9]; > 100 µM (inactive) in test [10]; > 100 µM (inactive) in [11]; > 100 µM (inactive) in [12]. Moreover, the GI50 in test [13], in test [14], in test [15], in test [16], in test [17] and in test [18] was > 100 µM (inactive) throughout. Besides, the GI50 was > 100 µM (inactive) in test [19] and 61.4 µM (inactive) in [20].
Consider `COc1cccc2c1C(=O)c1c(O)c3c(c(O)c1C2=O)C[C@@](O)(/C(C)=N/NC(=O)c1ccc(Cl)c(Cl)c1)C[C@@H]3OC1CC(N)C(O)C(C)O1` (stereo not given in full), for which the GI50 in [1] is 1.22 µM (inactive); in test [2], 0.0364 µM (active); in test [3], 0.0299 µM (active); in test [4], 0.176 µM (active); in test [5], 0.904 µM (active); in [6], 0.146 µM (active). The GI50 in test [7] is 0.147 µM (active); in [8], 0.462 µM (active); in test [9], 0.205 µM (active); in test [10], 0.0249 µM (active); in [11] it was 0.0693 µM (active); in test [12] it was 0.711 µM (active). In addition, the GI50 in [13] is < 0.01 µM (active); in [14], 0.0237 µM (active); in test [15] it was 0.226 µM (active); in [16], 0.0668 µM (active); in [17], 0.411 µM (active); in [18] it was 0.116 µM (active). In addition, the GI50 in test [19] is 0.0923 µM (active); in [20], 0.225 µM (active).
Take `CN(C)N1C(=O)c2ccccc2NC1c1ccccc1` (stereo not given): the GI50 in test [1], in test [2], in test [3], in test [4], in test [5] and in [6] was > 100 µM (inactive) each time. Moreover, the GI50 in [7], in test [8], in [9], in test [10], in test [11] and in test [12] was > 100 µM (inactive) each time. The GI50 in [13], in test [14], in [15], in test [16], in test [17] and in test [18] was > 100 µM (inactive) in each case. In addition, the GI50 in test [19] and in test [20] was > 100 µM (inactive) throughout.
Turning to `O=C(N[C@H]1CCC[C@H]1C(=O)Nc1ccc(C(F)(F)F)cc1)OCc1ccccc1`, the GI50 in test [1], in test [2], in [3], in test [4], in test [5] and in test [6] was > 100 µM (inactive) throughout. Besides, the GI50 in [7], in test [8], in test [9], in test [10], in test [11] and in test [12] was > 100 µM (inactive) each time. Moreover, the GI50 in [13], in [14], in test [15], in [16], in test [17] and in [18] was > 100 µM (inactive) in each case. The GI50 in test [19] and in test [20] was > 100 µM (inactive) in each case.

These data come from ChEMBL document CHEMBL1201862, “PubChem BioAssay data set” (2004).
